Test results reported in patent US10526337B2, “Heteroaryl derivative or pharmaceutically acceptable salt thereof, preparation method therefor, and pharmaceutical composition for preventing or treating diseases associated with PI3 kinases, containing same as active ingredient” (KOREA RESEARCH INSTITUTE OF CHEMICAL TECHNOLOGY, priority 2015, dated 2020).
pIC50: −log10 of the molar value.

How the values were obtained:
[1] = biological target: T1, PI3 Kinase (p110δ/p85α) (h) (Homo sapiens, UniProt O00329); assay: Inhibition of phosphatidylinositol 3-kinase delta (PI3K δ), pAkt Western blotting in IgM-stimulated Raji cells; format: cell-based; settings: ATP=10 uM, sample concentration=100 nM
T1 construct: endogenous in cells; host or cells: Raji
T1 sequence (O00329 whole entry): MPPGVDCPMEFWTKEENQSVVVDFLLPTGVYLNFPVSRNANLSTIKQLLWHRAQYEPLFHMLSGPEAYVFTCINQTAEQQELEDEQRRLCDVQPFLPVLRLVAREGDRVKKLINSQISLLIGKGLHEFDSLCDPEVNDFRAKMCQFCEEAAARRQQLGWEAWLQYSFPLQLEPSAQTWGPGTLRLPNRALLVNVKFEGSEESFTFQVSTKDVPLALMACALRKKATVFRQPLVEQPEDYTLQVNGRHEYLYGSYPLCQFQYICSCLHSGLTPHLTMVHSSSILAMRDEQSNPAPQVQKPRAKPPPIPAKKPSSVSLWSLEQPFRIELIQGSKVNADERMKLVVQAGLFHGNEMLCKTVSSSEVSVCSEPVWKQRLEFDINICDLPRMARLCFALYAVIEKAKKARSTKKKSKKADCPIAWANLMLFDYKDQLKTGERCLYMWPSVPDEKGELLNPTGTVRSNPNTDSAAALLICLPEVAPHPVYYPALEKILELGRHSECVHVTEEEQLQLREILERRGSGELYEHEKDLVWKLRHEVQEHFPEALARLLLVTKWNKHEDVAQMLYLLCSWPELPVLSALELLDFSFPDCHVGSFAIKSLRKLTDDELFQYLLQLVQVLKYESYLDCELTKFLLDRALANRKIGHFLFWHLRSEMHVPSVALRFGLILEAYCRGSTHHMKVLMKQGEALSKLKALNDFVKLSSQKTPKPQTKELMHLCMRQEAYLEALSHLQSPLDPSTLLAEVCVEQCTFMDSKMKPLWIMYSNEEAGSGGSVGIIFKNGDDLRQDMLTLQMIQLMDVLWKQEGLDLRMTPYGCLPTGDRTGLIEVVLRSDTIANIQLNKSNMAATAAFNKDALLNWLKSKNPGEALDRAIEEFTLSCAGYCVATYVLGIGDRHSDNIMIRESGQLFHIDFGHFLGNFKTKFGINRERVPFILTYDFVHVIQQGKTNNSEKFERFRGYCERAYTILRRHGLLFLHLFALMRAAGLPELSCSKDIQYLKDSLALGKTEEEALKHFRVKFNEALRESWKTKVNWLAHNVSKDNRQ
T1 sequence (P27986 whole entry partner): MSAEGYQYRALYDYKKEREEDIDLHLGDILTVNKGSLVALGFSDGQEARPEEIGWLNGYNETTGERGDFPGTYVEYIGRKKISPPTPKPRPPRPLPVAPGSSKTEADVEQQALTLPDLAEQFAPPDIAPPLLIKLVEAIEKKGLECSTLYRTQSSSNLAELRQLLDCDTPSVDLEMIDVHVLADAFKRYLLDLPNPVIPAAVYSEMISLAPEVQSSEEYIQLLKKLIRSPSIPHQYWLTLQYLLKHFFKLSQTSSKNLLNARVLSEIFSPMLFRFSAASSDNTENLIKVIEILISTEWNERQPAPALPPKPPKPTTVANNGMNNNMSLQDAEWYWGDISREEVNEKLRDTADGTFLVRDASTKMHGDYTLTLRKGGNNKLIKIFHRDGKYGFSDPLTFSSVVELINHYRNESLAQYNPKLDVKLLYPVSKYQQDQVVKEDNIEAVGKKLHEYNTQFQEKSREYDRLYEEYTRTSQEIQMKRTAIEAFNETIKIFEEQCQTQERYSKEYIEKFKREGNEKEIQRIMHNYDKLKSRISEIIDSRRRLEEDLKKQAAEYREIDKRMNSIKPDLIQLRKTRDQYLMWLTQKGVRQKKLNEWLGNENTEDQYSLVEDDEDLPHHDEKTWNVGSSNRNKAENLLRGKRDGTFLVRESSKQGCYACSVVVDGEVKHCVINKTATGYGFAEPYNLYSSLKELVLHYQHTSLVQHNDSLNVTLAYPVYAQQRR
Protocol: (§1) The stimulated cells were transferred in a 1.5 mL tube, followed by centrifugation at 3000 rpm for 1 minute. 100 μL of RIPA buffer (radioimmunoprecipitation assay buffer, 50 mM Tris-HCl, 5 mM EDTA, 150 mM NaCl, 1% NP-40, 1 mM PMSF, pH 8.0; ELPIS, Korea) was added thereto, which was stored in a 4° C. refrigerator for 12 hours. Centrifugation was performed at 4° C. at 14,000 rpm for 20 minutes. The supernatant was transferred into a new 1.5 mL tube. Protein was quantified by BCA (bicinchoninic acid) method and samples were prepared. The composition of the sample was as follows: sample buffer (ELPIS, EBA-1052) 5×, protein 10 μg, and 1× sample buffer to make the total volume 20 μL. The sample was heated at 100° C. for 5 minutes. The evaporated water vapor was condensed in a refrigerator. The liquid stained on the wall was fallen down by centrifugation for a few seconds. The sample proceeded to 10% SDS (Sodium Dodecyl Sulfate) acrylamide gel for separation. The separated protein was transferred onto PVDF (poly-vinyl difluoride) membrane, followed by reaction with pAkt (phospho protein kinase B) antibody (Ser473 or Thr308; Cell signaling, 9271s or 13038s) for 12 hours at 4° C. The membrane was washed with TBST (Tris-Buffered Saline with Tween 20, 10 mM Tris-HCl, pH 7.5, 150 mM NaCl, 0.1% Tween-20) three times for 5 minutes each, to which the secondary antibody (rabbit antibody, Santacruz, sc-2004) was added, followed by reaction at room temperature for 2 hours. The membrane was washed with TBST three times for 10 minutes each, to which ECL (enhanced chemiluminescence, Thermo, NCI34095KR) was sprayed. Bands were investigated by using LAS-3000.
The inhibition of phosphatidylinositol 3 kinase delta (PI3K δ) by those compounds prepared in Examples 1˜98 was investigated by the following experiment. The inhibition activity of each compound was measured in the following conditions: ATP=10 uM, and sample concentration=100 nM.
(§2) Raji cells cultured in RPMI1640 (Hyclone, SH30027.02) supplemented with 10% fetal bovine serum (Hyclon, USA) were distributed in a 12-well plate at the density of 1,000,000 cells/well. The cells were stabilized in a 37° C. CO2 for 24 hours and then treated with each compound for 1 and half hours. The cells were treated with 0.25 μg/mL of IgM (immunoglobulin M, Southern Biotech, USA) to increase the intracellular activity of PI3K delta. 30 minutes later, the medium was discarded and the cells were washed with cold PBS (phosphate buffered saline, Gibco, 14190-250). PBS was then eliminated completely by using a pipette. Western blotting was performed according to the same manner as described in step 2 of Experimental Example 1 to evaluate the intracellular PI3K delta activity.

[2] = biological target: T2, PI3 Kinase (p120γ) (h) (Homo sapiens, UniProt P48736); assay: Inhibition of phosphatidylinositol 3-kinase gamma (PI3K γ), pAkt Western blotting in C5a-stimulated RAW264.7 macrophages; format: cell-based, mouse; settings: ATP=10 uM, sample concentration=100 nM
T2 construct: endogenous in cells; host or cells: RAW264.7
T2 sequence (P48736 whole entry): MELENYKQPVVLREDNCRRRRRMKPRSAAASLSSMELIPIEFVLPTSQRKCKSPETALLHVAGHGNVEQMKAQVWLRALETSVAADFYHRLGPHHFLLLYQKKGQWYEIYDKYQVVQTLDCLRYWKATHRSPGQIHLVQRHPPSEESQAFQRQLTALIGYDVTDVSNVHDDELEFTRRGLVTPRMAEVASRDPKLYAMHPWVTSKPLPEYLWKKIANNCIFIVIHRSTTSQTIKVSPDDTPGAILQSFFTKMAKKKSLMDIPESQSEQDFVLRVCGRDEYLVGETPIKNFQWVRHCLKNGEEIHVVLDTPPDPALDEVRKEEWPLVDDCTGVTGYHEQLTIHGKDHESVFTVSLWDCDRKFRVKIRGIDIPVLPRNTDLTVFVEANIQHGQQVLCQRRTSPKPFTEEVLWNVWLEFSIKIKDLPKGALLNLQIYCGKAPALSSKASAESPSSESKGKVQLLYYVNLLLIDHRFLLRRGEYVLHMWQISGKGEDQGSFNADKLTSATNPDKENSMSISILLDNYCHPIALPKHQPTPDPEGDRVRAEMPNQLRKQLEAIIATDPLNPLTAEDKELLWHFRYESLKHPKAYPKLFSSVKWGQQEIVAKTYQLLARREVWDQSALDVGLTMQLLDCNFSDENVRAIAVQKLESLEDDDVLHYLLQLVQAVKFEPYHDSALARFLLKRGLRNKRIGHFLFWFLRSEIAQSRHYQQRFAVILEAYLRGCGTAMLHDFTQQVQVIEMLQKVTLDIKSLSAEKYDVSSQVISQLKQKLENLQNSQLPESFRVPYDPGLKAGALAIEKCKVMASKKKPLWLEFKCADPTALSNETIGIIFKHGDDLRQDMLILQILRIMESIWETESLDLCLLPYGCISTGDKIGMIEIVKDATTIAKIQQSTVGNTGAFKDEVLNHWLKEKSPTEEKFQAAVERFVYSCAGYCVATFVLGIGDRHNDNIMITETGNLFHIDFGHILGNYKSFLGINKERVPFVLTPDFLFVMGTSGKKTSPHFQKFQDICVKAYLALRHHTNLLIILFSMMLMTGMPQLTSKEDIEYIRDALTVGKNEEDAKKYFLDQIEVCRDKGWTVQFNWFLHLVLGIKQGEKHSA
Protocol: as §1
The inhibition of phosphatidylinositol 3 kinase gamma (PI3K γ) by those compounds prepared in Examples 1˜98 was investigated by the following experiment. The inhibition activity of each compound was measured in the following conditions: ATP=10 uM, and sample concentration=100 nM.
as §2, with “Macrophages (RAW264.7)” for “Raji cells”, “DMEM (Dulbecco's Modified Eagle Medium, Hyclon, SH30243.01)” for “RPMI1640 (Hyclone, SH30027.02)”, “10 ng/mL” for “0.25 μg/mL”, “C5a (complement component 5a, 10 μg/mL; R&D, 2150-C5)” for “IgM (immunoglobulin M, Southern Biotech, USA)”, “gamma. 5” for “delta. 30”, “gamma” for “delta”

pIC50 [1]	pIC50 [2]	SMILES
6.30 to 8.00	< 6.30	Cc1cccc(-n2c([C@H](C)Nc3ncnc4[nH]cnc(=O)c34)nc3cccc(Cl)c3c2=O)c1 [Example 69, (S)-5-((1-(5-chloro-4-oxo-3-(m-tolyl)-3,4-dihydroquinazoline-2-yl)ethyl)amino)pyrimido[4,5-d]pyrimidine-4(1H)-one]
6.30 to 8.00	6.30 to 8.00	CC[C@H](Nc1nc(N)nc2c1C(=O)N(C)CN2)c1nc2cccc(F)c2c(=O)n1-c1ccccc1 [Example 54, (S)-7-amino-5-((1-(5-fluoro-4-oxo-3-phenyl-3,4-dihydroquinazoline-2-yl)propyl)amino)-3-methyl-2,3-dihydropyrimido[4,5-d]pyrimidine-4(1H)-one]
6.30 to 8.00	6.30 to 8.00	C[C@H](Nc1nc(N)nc2[nH]cnc(=O)c12)c1nc2cccc(Cl)c2c(=O)n1-c1cccnc1 [Example 82, (S)-7-amino-5-((1-(5-chloro-4-oxo-3-(pyridine-3-yl)-3,4-dihydroquinazoline-2-yl)ethyl)amino)pyrimido[4,5-d]pyrimidine-4(1H)-one]
< 6.30	< 6.30	C[C@H](Nc1nc(N)nc2[nH]cnc(=O)c12)c1nc2cccc(Cl)c2c(=O)n1-c1cccc(F)c1 [Example 83, (S)-7-amino-5-((1-(5-chloro-3-(3-fluorophenyl)-4-oxo-3,4-dihydroquinazoline-2-yl)ethyl)amino)pyrimido[4,5-d]pyrimidine-4(1H)-one]
6.30 to 8.00	6.30 to 8.00	CC[C@H](Nc1ncnc2c1C(=O)N(C)CN2)c1nc2cccc(F)c2c(=O)n1-c1ccccc1 [Example 41, (S)-5-((1-(5-fluoro-4-oxo-3-phenyl-3,4-dihydroquinazoline-2-yl)propyl)amino)-3-methyl-2,3-dihydropyrimido[4,5-d]pyrimidine-4(1H)-one]
6.30 to 8.00	6.30 to 8.00	Cc1cccc(-n2c([C@H](C)Nc3nc(N)nc4[nH]cnc(=O)c34)nc3cccc(Cl)c3c2=O)c1 [Example 84, (S)-7-amino-5-((1-(5-chloro-4-oxo-3-(m-tolyl)-3,4-dihydroquinazoline-2-yl)ethyl)amino)pyrimido[4,5-d]pyrimidine-4(1H)-one]
< 6.30	< 6.30	O=c1nc[nH]c2ncnc(N3CCC[C@H]3c3nc4cccc(Cl)c4c(=O)n3-c3cccc(F)c3)c12 [Example 77, (S)-5-(2-(5-chloro-3-(3-fluorophenyl)-4-oxo-3,4-dihydroquinazoline-2-yl)pyrrolidine-1-yl)pyrimido[4,5-d]pyrimidine-4(1H)-one]
> 8.00	6.30 to 8.00	C[C@H](Nc1ncnc2c1C(=O)CCN2)c1cc2cccc(Cl)c2c(=O)n1-c1ccccc1 [Example 97, (S)-4-((1-(8-chloro-1-oxo-2-phenyl-1,2-dihydroisoquinoline-3-yl)ethyl)amino)-7,8-dihydropyrido[2,3-d]pyrimidine-5(6H)-one]
6.30 to 8.00	6.30 to 8.00	CN1CNc2ncnc(N3CCC[C@H]3c3nc4cccc(Cl)c4c(=O)n3-c3ccccc3)c2C1=O [Example 42, (S)-5-(2-(5-chloro-4-oxo-3-phenyl-3,4-dihydroquinazoline-2-yl)pyrrolidine-1-yl)-3-methyl-2,3-dihydropyrimido[4,5-d]pyrimidine-4(1H)-one]
6.30 to 8.00	6.30 to 8.00	C[C@H](Nc1nc(N)nc2c1C(=O)N(C)CN2)c1cc2ccccc2nc1-c1ccccc1 [Example 53, (S)-7-amino-3-methyl-5-((1-(2-phenylquinoline-3-yl)ethyl)amino)-2,3-dihydropyrimido[4,5-d]pyrimidine-4(1H)-one]
< 6.30	< 6.30	CN1CNc2nc(N)nc(N3CCC[C@H]3c3cc4cccc(Cl)c4c(=O)n3-c3ccccc3)c2C1=O [Example 59, (S)-7-amino-5-(2-(8-chloro-1-oxo-2-phenyl-1,2-dihydroisoquinoline-3-yl)pyrrolidine-1-yl)-3-methyl-2,3-dihydropyrimido[4,5-d]pyrimidine-4(1H)-one]
< 6.30	< 6.30	Nc1nc(N2CCC[C@H]2c2nn3ccc(Cl)c3c(=O)n2-c2cccc(F)c2)c2c(=O)nc[nH]c2n1 [Example 96, (S)-7-amino-5-(2-(5-chloro-3-(3-fluorophenyl)-4-oxo-3,4-dihydropyrrolo[2,1-f][1,2,4]triazine-2-yl)pyrrolidine-1-yl)pyrimido[4,5-d]pyrimidine-4(1H)-one]
< 6.30	< 6.30	C[C@H](Nc1ncnc2[nH]cnc(=O)c12)c1nc2cccc(Cl)c2c(=O)n1-c1cccnc1 [Example 67, (S)-5-((1-(5-chloro-4-oxo-3-(pyridine-3-yl)-3,4-dihydroquinazoline-2-yl)ethyl)amino)pyrimido[4,5-d]pyrimidine-4(1H)-one]
< 6.30	< 6.30	O=c1nc[nH]c2ncnc(N3CCC[C@H]3c3nc4cccc(Cl)c4c(=O)n3-c3ccccc3)c12 [Example 74, (S)-5-(2-(5-chloro-4-oxo-3-phenyl-3,4-dihydroquinazoline-2-yl)pyrrolidine-1-yl)pyrimido[4,5-d]pyrimidine-4(1H)-one]
< 6.30	< 6.30	CN1CNc2nc(N)nc(N3CCC[C@H]3c3nc4cccc(Cl)c4c(=O)n3-c3cccnc3)c2C1=O [Example 56, (S)-7-amino-5-(2-(5-chloro-4-oxo-3-(pyridine-3-yl)-3,4-dihydroquinazoline-2-yl)pyrrolidine-1-yl)-3-methyl-2,3-dihydropyrimido[4,5-d]pyrimidine-4(1H)-one]
> 8.00	6.30 to 8.00	C[C@H](Nc1ncnc2c1C(=O)N(C)CN2)c1nc2cccc(Cl)c2c(=O)n1-c1ccccc1 [Example 34, (S)-5-((1-(5-chloro-4-oxo-3-phenyl-3,4-dihydroquinazoline-2-yl)ethyl)amino)-3-methyl-2,3-dihydropyrimido[4,5-d]pyrimidine-4(1H)-one]
< 6.30	6.30 to 8.00	CN1CNc2nc(N)nc(N3CCC[C@H]3c3nc4cccc(Cl)c4c(=O)n3-c3cccc(F)c3)c2C1=O [Example 57, (S)-7-amino-5-(2-(5-chloro-3-(3-fluorophenyl)-4-oxo-3,4-dihydroquinazoline-2-yl)pyrrolidine-1-yl)-3-methyl-2,3-dihydropyrimido[4,5-d]pyrimidine-4(1H)-one]
6.30 to 8.00	6.30 to 8.00	CN1CNc2nc(N)nc(N3CCC[C@H]3c3nc4cccc(Cl)c4c(=O)n3-c3ccccc3)c2C1=O [Example 55, (S)-7-amino-5-(2-(5-chloro-4-oxo-3-phenyl-3,4-dihydroquinazoline-2-yl)pyrrolidine-1-yl)-3-methyl-2,3-dihydropyrimido[4,5-d]pyrimidine-4(1H)-one]
< 6.30	< 6.30	Nc1nc(N2CCC[C@H]2c2nc3cccc(Cl)c3c(=O)n2-c2ccccc2)c2c(=O)nc[nH]c2n1 [Example 90, (S)-7-amino-5-(2-(5-chloro-4-oxo-3-phenyl-3,4-dihydroquinazoline-2-yl)pyrrolidine-1-yl)pyrimido[4,5-d]pyrimidine-4(1H)-one]
< 6.30	< 6.30	Cc1cccc(-n2c([C@@H]3CCCN3c3nc(N)nc4c3C(=O)N(C)CN4)nc3cccc(Cl)c3c2=O)c1 [Example 58, (S)-7-amino-5-(2-(5-chloro-4-oxo-3-(m-tolyl)-3,4-dihydroquinazoline-2-yl)pyrrolidine-1-yl)-3-methyl-2,3-dihydropyrimido[4,5-d]pyrimidine-4(1H)-one]
